Literature values, collected in patent US20140309168A1, “MODIFIED PEPTIDES AND PROTEINS” (AmideBio, LLC, priority 2010, published 2014).

Conditions: background statement on the marketed peptide

enfuvirtide
in vivo half life: about 3.8 hours
